Among the data in publication PMC4779441 (International journal of peptide research and therapeutics, 2015) are EC50 values, retold here.

In the experiment the test system is HCT-116 cells. Nature of the experiment: In vitro cells' growth inhibition assay. As to conditions: Homo sapiens, HCT-116, 48 h, read-out: EC50 [µM] HCT-116.

Broadly, the EC50 is the midpoint of the concentration-response curve.

`CC(=O)O[C@@]12CO[C@@H]1C[C@H](O)[C@@]1(C)C(=O)[C@H](O)C3=C(C)[C@@H](OC(=O)[C@H](O)[C@@H](NC(=O)OC(C)(C)C)c4ccccc4)C[C@@](O)([C@@H](OC(=O)c4ccccc4)[C@H]21)C3(C)C` [DTX, Docetaxel]: the EC50 was found to be 74.5 ± 3.7 µM.
